Measurements from patent publication US8835458B2 (Hanmi Science Co., Ltd, priority 2010, dated 2014).
Structures can show the parent of a compound that is named as a salt. Where two headings read alike, the source gives them in different places.

Experiments:
[1] = tested on: MDA-MB-231 breast cancer cell lines; assay: Evaluation of inhibition on cell growth (MTS); format: cell-based; settings: Homo sapiens, MDA-MB-231, 120 hours
Experimental: (§1) MDA-MB-231 breast cancer cell lines (ATCC #HTB-26) and BxPC-3 pancreas cancer cell lines (ATCC #CRL 1687), which have been reported to express XIAP, were obtained from ATCC (American type culture collection; Rockville, Md.). MDA-MB-231 cell lines were incubated in L-15 medium supplemented with 10% FBS and 1% penicillin/streptomycin (Gibco BRL) at a T-75 cm^2 growth flask. In addition, BxPC-3 cell lines were incubated in RPMI medium supplemented with 10% FBS and 1% penicillin/streptomycin. For experiments of toxicity to normal cells, fibroblasts Hs27 (ATCC #CRL 1634) and Balb/c3t3 (ATCC #CCL 163) were used. The various cell lines were transferred into 96-well plates at a density of 3,000˜5,000 cells/100 μL, and cultured for 24 hours under conditions of 37° C., 5% CO2, 95% air, and 100% relative humidity (MDA-MB-231 cells were cultured under atmospheric conditions). The cells were treated with 10 μM˜0.1 nM of test compounds, and MDA-MB-231, BxPC-3, and normal cell lines were cultured for 120, 96, and 72 hours, respectively.
(§2) Cell viabilities of MDA-MB-231 cell lines were measured at an absorbance of 490 nm using CellTiter 96™ AQueous One Solution Cell proliferation Assay (MTS, Promega), and cell viabilities of BxPC-3 and normal cell lines were measured by fixing cells with 10% TCA (trichloroacetic acid), staining with SRB (sulforhodamine B), and measuring at 540 nm. From the values, GI50 values in which test compounds reduce the growth of cancer cells by 50% were calculated. The growth rates of cancer cells were calculated from following Equation 1 or 2. [(Ti−Tz)/(C−Tz)]×100 (for Ti>=Tz) [Equation 1] [(Ti−Tz)/Tz]×100 (for Ti<Tz) [Equation 2] In Equations 1 and 2, Tz refers to a density of untreated cells, which is an absorbance in 0% cell growth groups. C refers to a density of cells cultured by adding only medium, and Ti refers to a density of cells treated with test compounds.
(§3) GI50 value is the concentration of a test compound when the value of Equation 1 is 50, which indicates the concentration of test compound required to inhibit the cancer cells by 50%. On each measurement, test compounds were compared with a control.
(§4) The activity value of each compound (GI50 value) was shown in Table 5, and an IAP antagonist was used as a control.
(§5) In the activity measurement on MDA-MB-231 breast cancer cell lines, the values were represented as “***” for 100 nM or less, “**” for over 100 nM to below 1,000 nM, and “*” for 1,000 nM or more. In the measurement on normal cell lines, Balb/C and Hs27, the values were represented as “+++” for 10,000 nM or more, “++” for over 5,000 nM to below 10,000 nM, and “+” for 5,000 nM or less.

[2] = Toxicity to normal cells (SRB); format: cell-based, human; settings: human, Hs27 fibroblasts (normal cell line)
Experimental: as §1, §2, §3, §4, §5

[3] = Toxicity to normal cells (SRB); format: cell-based, mouse; settings: mouse, Balb/c3t3 fibroblasts (normal cell line), read-out: BalB/C (GI50)
Experimental: as §1, §2, §3, §4, §5

Structure (SMILES) | GI50 [1] [µM] | GI50 at 72 h [2] [µM] | GI50 at 72 h [3] [µM]
CN[C@@H](C)C(=O)N[C@H](C(=O)N1CCC[C@H]1C(=O)Nc1cc2c(Nc3c(Cl)ccc4c3OCO4)ncnc2cc1OCCOC)C(C)(C)C [Example 3, ((S)—N-(4-(5-chlorobenzo[d][1,3]dioxol-4-ylamino)-7-(2-methoxyethoxy)quinazolin-6-yl)-1-((S)-3,3-dimethyl-2-((S)-2-(methylamino)propanamido)butanoyl)pyrrolidine-2-carboxamide hydrochloride] | 0.1 to 1 | > 10 | > 10
CN[C@@H](C)C(=O)N[C@H](C(=O)N1CCC[C@H]1C(=O)Nc1ccc2ncnc(Nc3cccc(Cl)c3F)c2c1)C(C)(C)C [Example 4, (S)—N-(4-(3-chloro-2-fluorophenylamino)quinazolin-6-yl)-1-((S)-3,3-dimethyl-2-((S)-2-(methylamino)propanamido)butanoyl)pyrrolidine-2-carboxamide hydrochloride] | 0.1 to 1 | > 10 | > 10
CN[C@@H](C)C(=O)N[C@H](C(=O)N1CCC[C@H]1C(=O)Nc1cc2c(Nc3ccc(F)c(Cl)c3)ncnc2cc1OCCOC)C(C)(C)C [Example 5, (S)—N-(4-(3-chloro-4-fluorophenylamino)-7-(2-methoxyethoxy)quinazolin-6-yl)-1-((S)-3,3-dimethyl-2-((S)-2-(methylamino)propanamido)butanoyl)pyrrolidine-2-carboxamide hydrochloride] | 0.1 to 1 | > 10 | > 10
CN[C@@H](C)C(=O)N[C@H](C(=O)N1CCC[C@H]1C(=O)Nc1cc2c(Nc3ccc(F)c(Cl)c3F)ncnc2cc1OCCOC)C(C)(C)C [Example 6, (S)—N-(4-(3-chloro-2,4-difluorophenylamino)-7-(2-methoxyethoxy)quinazolin-6-yl)-1-((S)-3,3-dimethyl-2-((S)-2-(methylamino)propanamido)butanoyl)pyrrolidine-2-carboxamide hydrochloride] | 0.1 to 1 | > 10 | > 10
CN[C@@H](C)C(=O)N[C@H](C(=O)N1CCC[C@H]1C(=O)Nc1cc2c(Nc3cccc(Cl)c3F)ncnc2cc1OC)C(C)(C)C.Cl [Example 7, hydrochloride] | ≤ 0.1 | > 10 | > 10
COc1cc2ncnc(Nc3ccc(F)c(Cl)c3F)c2cc1NC(=O)[C@@H]1CCCN1C(=O)[C@@H](NC(=O)[C@H](C)N)C(C)(C)C [Example 12, (S)-1-((S)-2-((S)-2-aminopropanamido)-3,3-dimethylbutanoyl)-N-(4-(3-chloro-2,4-difluorophenylamino)-7-methoxyquinazolin-6-yl)pyrrolidine-2-carboxamide hydrochloride] | ≥ 1 | > 10 | > 10
CN[C@@H](C)C(=O)N[C@H](C(=O)N1CCC[C@H]1C(=O)Nc1cc2c(Nc3ccc(F)c(Cl)c3F)ncnc2cc1O[C@@H]1CCOC1)C(C)(C)C [Example 16, (S)—N-(4-(3-chloro-2,4-difluorophenylamino)-7-((R)-tetrahydrofuran-3-yloxy)quinazolin-6-yl)-1-((S)-3,3-dimethyl-2-((S)-2-(methylamino)propanamido)butanoyl)pyrrolidine-2-carboxamide hydrochloride] | 0.1 to 1 | > 10 | > 10
CN[C@@H](C)C(=O)N[C@H](C(=O)N1CCC[C@H]1C(=O)Nc1cc2c(N3CCCCC3)ncnc2cc1OC)C(C)(C)C [Example 24, (S)-1-((S)-3,3-dimethyl-2-((S)-2-(methylamino)propanamido)butanoyl)-N-(7-methoxy-4-(piperidin-1-yl)quinazolin-6-yl)pyrrolidine-2-carboxamide hydrochloride] | ≤ 0.1 | > 10 | > 10
CN[C@@H](C)C(=O)N[C@H](C(=O)N1CCC[C@H]1C(=O)Nc1cc2c(Nc3ccc(N4CCN(C)CC4)c(F)c3)ncnc2cc1OC)C(C)(C)C [Example 112, (S)-1-((S)-3,3-dimethyl-2-((S)-2-(methylamino)propanamido)butanoyl)-N-(4-((3-fluoro-4-(4-methylpiperazin-1-yl)phenyl)amino)-7-methoxyquinazolin-6-yl)pyrrolidine-2-carboxamide] | ≤ 0.1 | > 10 | –
CN[C@@H](C)C(=O)N[C@H](C(=O)N1CCC[C@H]1C(=O)Nc1cc2c(Nc3ccc(N4CCCC4)c(Cl)c3)ncnc2cc1OC)C(C)(C)C [Example 113, (S)—N-(4-((3-chloro-4-(pyrrolidin-1-yl)phenyl)amino)-7-methoxyquinazolin-6-yl)-1-((S)-3,3-dimethyl-2-((S)-2-(methylamino)propanamido)butanoyl)pyrrolidine-2-carboxamide] | ≤ 0.1 | > 10 | –

More lines, main results first:

GI50 [1] [µM] | Structure (SMILES) | GI50 at 72 h [2] [µM] | GI50 at 72 h [3] [µM]
≥ 1 | C=CC(=O)N[C@@H](C)C(=O)N[C@H](C(=O)N1CCC[C@H]1C(=O)Nc1cc2c(Nc3ccc(F)c(Cl)c3F)ncnc2cc1OC)C(C)(C)C [Example 13, (S)-1-((S)-2-((S)-2-acrylamidopropanamido)-3,3-dimethylbutanoyl)-N-(4-(3-chloro-2,4-difluorophenylamino)-7-methoxyquinazolin-6-yl)pyrrolidine-2-carboxamide hydrochloride] | > 10 | > 10
≤ 0.1 | CN[C@@H](C)C(=O)N[C@H](C(=O)N1CCC[C@H]1C(=O)Nc1cc2c(Nc3ccc(F)c(Cl)c3F)ncnc2cc1O[C@H]1CCOC1)C(C)(C)C [Example 14, (S)—N-(4-(3-chloro-2,4-difluorophenylamino)-7-((S)-tetrahydrofuran-3-yloxy)quinazolin-6-yl)-1-((S)-3,3-dimethyl-2-((S)-2-(methylamino)propanamido)butanoyl)pyrrolidine-2-carboxamide hydrochloride] | > 10 | > 10
0.1 to 1 | CN[C@@H](C)C(=O)N[C@H](C(=O)N1CC[C@H]1C(=O)Nc1cc2c(Nc3ccc(F)c(Cl)c3F)ncnc2cc1OC)C(C)(C)C [Example 20, (S)—N-(4-(3-chloro-2,4-difluorophenylamino)-7-methoxyquinazolin-6-yl)-1-((S)-3,3-dimethyl-2-((S)-2-(methylamino)propanamido)butanoyl)azetidine-2-carboxamide hydrochloride] | > 10 | > 10
≤ 0.1 | CN[C@@H](C)C(=O)N[C@H](C(=O)N1CCC[C@H]1C(=O)Nc1cc2c(Nc3ccccc3Cl)ncnc2cc1OC)C(C)(C)C [Example 21, (S)—N-(4-(2-chlorophenylamino)-7-methoxyquinazolin-6-yl)-1-((S)-3,3-dimethyl-2-((S)-2-(methylamino)propanamido)butanoyl)pyrrolidine-2-carboxamide hydrochloride] | > 10 | > 10
≤ 0.1 | CN[C@@H](C)C(=O)N[C@H](C(=O)N1CCC[C@H]1C(=O)Nc1cc2c(Nc3ccccc3Br)ncnc2cc1OC)C(C)(C)C [Example 22, (S)—N-(4-(2-bromophenylamino)-7-methoxyquinazolin-6-yl)-1-((S)-3,3-dimethyl-2-((S)-2-(methylamino)propanamido)butanoyl)pyrrolidine-2-carboxamide hydrochloride] | > 10 | > 10
≤ 0.1 | CNc1ncnc2cc(OC)c(NC(=O)[C@@H]3CCCN3C(=O)[C@@H](NC(=O)[C@H](C)NC)C(C)(C)C)cc12 [Example 23, (S)-1-((S)-3,3-dimethyl-2-((S)-2-(methylamino)propanamido)butanoyl)-N-(7-methoxy-4-(methylamino)quinazolin-6-yl)pyrrolidine-2-carboxamide] | > 10 | > 10
0.1 to 1 | CN[C@@H](C)C(=O)N[C@H](C(=O)N1CCCC[C@H]1C(=O)Nc1cc2c(Nc3ccc(F)c(Cl)c3F)ncnc2cc1OC)C(C)(C)C [Example 25] | > 10 | > 10
